Data reported in US20230091047A1 (priority 2019, published 2023).
Read-outs that look alike come from different tables or passages of the source.

Assays:
[1] = test system: HBV (HepG2.117 cell line, inducibly HBV producing); experiment: Anti-HBV activity: intracellular HBV DNA by real-time PCR in HepG2.117 cells after 3 days of treatment; format: cell-based, hepatitis B virus
Procedure, shortened: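 Tet-off HepG2.117; HBV replication induced (no doxycycline); serial compound dilutions, 3 d; intracellular HBV DNA by real-time PCR, HBV-specific primers/probe.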

[2] = in vitro; format: cell-based; details: human, HepG2 or HepG2.117 cells, ATPlite, mean value
Procedure, shortened: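 Luminescent ATP quantitation served as the viability endpoint following a 3- or 4-day incubation with test compounds.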

[3] = Hepatitis B virus, HepG2.117, 72 h, HepG2.117 cells, 3 days of treatment, intracellular HBV DNA by real-time PCR; mean value; read-out: EC50 (μM, mean value)
[4] = 3-days incubation (unmarked values)
[5] = Hepatitis B virus, HepG2.117, 72 h, HepG2.117 cells, intracellular HBV DNA by real-time PCR, 3 days of treatment, mean value; read-out: EC50 (μM, mean value)
[6] = 3-days incubation (not marked with *)

Compound	EC50 [1, 3] [µM]	CC50 at 3 days [2, 4] [µM]	EC50 ([1]; HepG2.117 cells, 3 days of treatment, intracellular HBV DNA by real-time PCR; mean value; read-out: EC50 (μM, mean value)) [µM]	EC50 [1, 5] [µM]	CC50 at 3 days [2, 6] [µM]
CC(C)Nc1nc2c(c(=O)n1-c1ccc(-c3nccs3)cc1)CCN(C(=O)c1ccc(Cl)c(Cl)c1)C2 [Compound C238, 7-(3,4-dichlorobenzoyl)-2-[(propan-2-yl)amino]-3-[4-(1,3-thiazol-2-yl)phenyl]-5,6,7,8-tetrahydropyrido[3,4-d]pyrimidin-4(3H)-one]	0.56	> 50			
COc1ccccc1-n1c(NCCO)nc2c(c1=O)CCN(C(=O)c1ccc(Cl)c(Cl)c1)C2 [Compound C37, 7-(3,4-dichlorobenzoyl)-2-[(2-hydroxyethyl)amino]-3-(2-methoxyphenyl)-5,6,7,8-tetrahydropyrido[3,4-d]pyrimidin-4(3H)-one]	32.1	> 50			
Cc1nnc(-c2ccc(-n3c(NC(C)C)nc4c(c3=O)C[C@@H](C)N(C(=O)c3ccc(Cl)c(Cl)c3)C4)cc2)s1 [Compound C245, (6R)-7-(3,4-dichlorobenzoyl)-6-methyl-3-[4-(5-methyl-1,3,4-thiadiazol-2-yl)phenyl]-2-[(propan-2-yl)amino]-5,6,7,8-tetrahydropyrido[3,4-d]pyrimidin-4(3H)-one]	0.17	> 50			
COc1ccc(CNc2nc3c(c(=O)n2-c2ccc4ncoc4c2)CCN(C(=O)c2ccc(Cl)c(Cl)c2)C3)cc1 [Compound C131, 3-(1,3-benzoxazol-6-yl)-7-(3,4-dichlorobenzoyl)-2-{[(4-methoxyphenyl)methyl]amino}-5,6,7,8-tetrahydropyrido[3,4-d]pyrimidin-4(3H)-one]	0.53	> 50			
CC(C)Nc1nc2c(c(=O)n1-c1ccc(S(C)(=O)=O)cc1)C[C@@H](C)N(C(=O)c1ccc(Cl)c(Cl)c1)C2 [Compound C100A, (6R)-7-(3,4-dichlorobenzoyl)-3-[4-(methanesulfonyl)phenyl]-6-methyl-2-[(propan-2-yl)amino]-5,6,7,8-tetrahydropyrido[3,4-d]pyrimidin-4(3H)-one]		> 50	0.27		
CC(C)Nc1nc2c(c(=O)n1-c1ccc(C(=O)NCCO)cc1)C[C@@H](C)N(C(=O)c1ccc(Cl)c(Cl)c1)C2 [Compound C204, 4-[(6R)-7-(3,4-dichlorobenzoyl)-6-methyl-4-oxo-2-[(propan-2-yl)amino]-5,6,7,8-tetrahydropyrido[3,4-d]pyrimidin-3(4H)-yl]-N-(2-hydroxyethyl)benzamide]	0.54	> 50			
CNC(=O)c1ccc(-n2c(NC(C)C)nc3c(c2=O)C[C@@H](C)N(C(=O)c2ccc(Br)c(OC(C)C)c2)C3)cc1 [Compound C575]				0.55	> 50
CNC(=O)C12CC(n3c(NC(C)C)nc4c(c3=O)C[C@@H](C)N(C(=O)c3ccc(Cl)c(Cl)c3)C4)(C1)C2 [Compound C261, 3-[(6R)-7-(3,4-dichlorobenzoyl)-6-methyl-4-oxo-2-[(propan-2-yl)amino]-5,6,7,8-tetrahydropyrido[3,4-d]pyrimidin-3(4H)-yl]-N-methylbicyclo[1.1.1]pentane-1-carboxamide]	0.34	> 50			
CCCn1c(NCc2ccc(OC)cc2)nc2c(c1=O)CCN(C(=O)c1ccc(Cl)c(Cl)c1)C2 [Compound C71, 7-(3,4-dichlorobenzoyl)-2-{[(4-methoxyphenyl)methyl]amino}-3-propyl-5,6,7,8-tetrahydropyrido[3,4-d]pyrimidin-4(3H)-one]	7.04	> 50			
CC(C)Nc1nc2c(c(=O)n1-c1ccc(-c3cc[nH]n3)cc1)C[C@@H](C)N(C(=O)c1ccc(Cl)c(Cl)c1)C2 [Compound C241, (6R)-7-(3,4-dichlorobenzoyl)-6-methyl-2-[(propan-2-yl)amino]-3-[4-(1H-pyrazol-3-yl)phenyl]-5,6,7,8-tetrahydropyrido[3,4-d]pyrimidin-4(3H)-one]	0.19	33.1			
CNC(=O)c1ccc(-n2c(NC(C)C)nc3c(c2=O)C[C@@H](C)N(C(=O)c2ccc(C(F)F)c(Cl)c2)C3)cc1 [Compound C418]				0.08	> 50
COc1ccccc1-n1c(N[C@@H](C)CO)nc2c(c1=O)CCN(C(=O)c1ccc(Cl)c(Cl)c1)C2 (single isomer, unassigned) [Compound C62Ba, 7-(3,4-dichlorobenzoyl)-2-{[(2*S)-1-hydroxypropan-2-yl]amino}-3-(2-methoxyphenyl)-5,6,7,8-tetrahydropyrido[3,4-d]pyrimidin-4(3H)-one]	3.65	> 50			
CC(C)Nc1nc2c(c(=O)n1-c1ccc(S(C)(=O)=O)cc1)CCN(C(=O)C1Cc3ccccc3O1)C2 (stereo not drawn) [Compound C360]	> 50	> 50			
CNC(=O)c1ccc([C@@H](C)Nc2nc3c(c(=O)n2-c2ccc(NC(C)=O)cc2)C[C@@H](C)N(C(=O)c2ccc(Cl)c(Cl)c2)C3)cc1 (single isomer, unassigned) [Compound C528a]				3.38	> 50
CNC(=O)c1ccc(-n2c(NCc3ccccc3-n3ccnc3)nc3c(c2=O)C[C@@H](C)N(C(=O)c2ccc(Cl)c(Cl)c2)C3)cc1 [Compound C485]				11.9	24.9
COc1ccc(CNc2nc3c(c(=O)n2C2CCS(=O)(=O)CC2)CCN(C(=O)c2ccc(Cl)c(Cl)c2)C3)cc1 [Compound C119, 4-[7-(3,4-dichlorobenzoyl)-2-{[(4-methoxyphenyl)methyl]amino}-4-oxo-5,6,7,8-tetrahydropyrido[3,4-d]pyrimidin-3(4H)-yl]-1λ^6-thiane-1,1-dione]	6.95	33.5			
CC(C)Nc1nc2c(c(=O)n1-c1ccc(S(C)(=O)=O)cc1)CCN(C(=O)c1ccc3sccc3c1)C2 [Compound C164, 7-(1-benzothiophene-5-carbonyl)-3-[4-(methanesulfonyl)phenyl]-2-[(propan-2-yl)amino]-5,6,7,8-tetrahydropyrido[3,4-d]pyrimidin-4(3H)-one]	0.24	> 50			
CCN(CC)c1nc2c(c(=O)n1-c1ccc(C(=O)NC)nc1)C[C@@H](C)N(C(=O)c1ccc(Cl)c(Cl)c1)C2 [Compound C625]				0.18	> 50
CC(C)Nc1nc2c(c(=O)n1-c1ccc(C(=O)NC3CC3)cc1)C[C@@H](C)N(C(=O)c1ccc(Cl)c(C(F)(F)F)c1)C2 [Compound C654]				0.03	> 50
CC(C)Nc1nc2c(c(=O)n1-c1ccc(-c3cncs3)cc1)CCN(C(=O)c1ccc(Cl)c(Cl)c1)C2 [Compound C188, 7-(3,4-dichlorobenzoyl)-2-[(propan-2-yl)amino]-3-[4-(1,3-thiazol-5-yl)phenyl]-5,6,7,8-tetrahydropyrido[3,4-d]pyrimidin-4(3H)-one]	0.51	> 50			
CNC(=O)c1ccc(-n2c(N[C@H]3CCCC3(C)C)nc3c(c2=O)C[C@@H](C)N(C(=O)c2ccc(Cl)c(Cl)c2)C3)cc1 (single isomer, unassigned) [Compound C319, 4-[(6R)-7-(3,4-dichlorobenzoyl)-2-{[(1*S)-2,2-dimethylcyclopentyl]amino}-6-methyl-4-oxo-5,6,7,8-tetrahydropyrido[3,4-d]pyrimidin-3(4H)-yl]-N-methylbenzamide]	0.21	23.5			
